From patent publication US20250042968A1, “EPHRIN LIGAND MIMETIC PEPTIDES FOR THE TREATMENT OF NEURODEGENERATIVE DISEASES” (University of Miami, priority 2022, published 2025)

System: human fetal brain-derived neural stem cells (hNSC)
Assay: hNSC growth on ephrin-ligand repulsive substrates
Format: cell-based
Conditions: 500 nM, 5-day culture, over control cultures
Protocol: Fetal brain-derived neural stem cells (hNSC): In order to evaluate the effect of xEFN peptides on human neuronal cells, StemPro hNSC were purchased from ThermoFisher Scientific (Cat. no. A15654) and cultured according to the manufacturer's recommended protocol. Briefly, cells were grown in non-adherent neurosphere suspension cultures in StemPro NSC serum-free media (NSC-SFM) (Cat. no. A10509-01) supplemented with 2 mM GlutaMAX-I supplement, 6 U/mL heparin, and 200 μM ascorbic acid (Sigma-Aldrich, Cat. no. A8960). Culture media was changed every 2 days and cells were passaged every 7 days as undifferentiated hNSC. To induce differentiation into neuronal cells, hNSC neurospheres were dissociated into single-cell suspensions using StemPro Accutase for 5 minutes at 37° C. followed by mechanical pipetting. hNSC were then plated onto Geltrex-coated culture vessels at a concentration of 2×10^4 cells/cm^2 in neuronal differentiation media consisting of NSC media without bFGF or EGF and supplemented with B-27 supplement (ThermoFisher Scientific) for 3 days prior to performing further in vitro assays.
Glial-bound efn ligands have been associated with mediating the major repulsive milieu for neuronal process in the CNS. […] Moreover, assays on the repulsive nature of efn ligand-presenting surfaces have been a mainstay in axonal guidance studies for many decade. The use of xEFN peptides to antagonize this repulsive signaling from efn ligand substrates was evaluated on human fetal brain-derived neural stem cells (hNSC).
Recombinant Efn ligands (A2, A4, and B3) containing a His-Tag were purchased from R&D Systems, and were pre-clustered using an anti-His antibody (Genetex) for 30 min. The pre-clustered Efn ligands, or anti-his antibody alone, (control) were then mixed with laminin from human placenta (Sigma-Aldrich) in suspension and used to coat the growth surface of a 24-well plate. […] The entire wells were then scanned using an EVOS FL Auto fluorescent microscope and the images were analyzed in the ImageJ software to calculate cell coverage area.

## FTIKFQEFSPNLWGL [xEFN_RBD3]
  confluence coverage on efnA2 substrate: 120.62+/−10.89%
  confluence coverage on efnA4 substrate: 125.83+/−2.92%
  confluence coverage on efnB3 substrate: 96.51+/−7.15%
